In patent publication US6489318B1, “Ethylidene derivatives of tricyclic carbapenems” (LEK, tovarna farmacevtskih in kemicnih izdelkov, d.d., priority 1996, dated 2002):

system: β-lactamase of Escherichia coli 3.5.2.6; experiment: Hydrolysis of nitrocefin with β-lactamase in the presence of inhibitors (spectrophotometric, 495 nm); assay type: biochemical; settings: substrate nitrocefin 190 μmole/l; inhibitor 10 μmole/l
Description: Determination of inhibitory action of the compounds of the formula I upon the enzyme β-lactamase
The inhibitory action of the compounds of the formula I was determined according to standard methodology (Bush, K. and Sykes, R. B. Methods of Enzymatic Analysis, Third Edition, Vol. 4, p. 280, Verlag Chemie GmbH, Weinheim, 1984). The method comprises a spectrophotometric quantitative (band at 495 nm) measurement of catalytic action of the enzyme β-lactamase from the E. coli EC 3.5.2.6 strain. As a substrate nitrocefin ((7R)-3-((E)-2,4-dinitrostiryl)-7-(2-thienylacetamido)-3-cefem-4-carboxylic acid) was used which has the broadest spectrum of susceptibility and sensibility. The hydrolysis of nitrocefin in the presence of an inhibitor of the enzyme β-lactamase was determined.
Hydrolysis of nitrocefin with β-lactamase of Escherichia coli 3.5.2.6 in the presence of inhibitors

Question: For `CC1(C)[C@H](C(=O)O)N2C(=O)C[C@H]2S1(=O)=O` [sulbactam, reference compound], which “Inhibitory activity (%)” value is on record?
Answer: 50%

Question: `C/C=C1/C(=O)N2C(C(=O)[O-])=C3CCCC[C@@H]3[C@H]12.[Na+]` [compound B, sodium (8S,9R)-10-((E)-ethylidene)-11-oxo-1-azatricyclo[7.2.0.0^3,8]undec-2-ene-2-carboxylate] was tested. Which “Inhibitory activity (%)” value did it give?
Answer: 23%

Question: How did the “Inhibitory activity (%)” value turn out when `C/C=C1/C(=O)N2C(C(=O)O)=C3CCSC[C@H]3[C@H]12` [compound A, sodium (8R,9R)-10-((E)-ethylidene)-11-oxo-1-aza-6-thiatricyclo[7.2.0.0^3,8]undec-2-ene-2-carboxylate] was run?
Answer: 38%
